From BindingDB's records for doi:10.1016/S0960-894X(01)81044-1 (1991)

Columns and labels:
[1] = Inhibitory activity against sweet almond Beta-glucosidase
[2] = as above; remark: listed apart in the source

Row | Ki [1] | Ki [2] | SMILES
1 | 60 mM |  | OC[C@H]1OC[C@H](O)[C@@H](O)[C@@H]1O [(2R,3S,4R,5S)-2-(hydroxymethyl)oxane-3,4,5-triol]
2 | 39 mM |  | O[C@H]1[C@H](O)COC[C@@H]1O [(3S,4R,5R)-Tetrahydro-pyran-3,4,5-triol]
3 |  | 0.00011 mM | NCCc1cn(C(=O)c2ccccc2)cn1 [[4-(2-Amino-ethyl)-imidazol-1-yl]-phenyl-methanone]

Second part, the molecule before the results:

Row | SMILES | Ki [1] | Ki [2]
4 | OC[C@H]1OC[C@@H](O)[C@H]1O [(2R,3R,4R)-2-Hydroxymethyl-tetrahydro-furan-3,4-diol] | 14.8 mM | 
5 | OC[C@H]1OC[C@@H](O)[C@@H]1O [(2R,3S,4R)-2-Hydroxymethyl-tetrahydro-furan-3,4-diol] | 36.2 mM | 
